pIC50: −log10 of the molar value.
Legend:
Mus musculus [1] = experiment: Antiinflammatory activity against TPA-induced CD-1 mouse ear edema model assessed as reduction in ear edema at 0.25 mg/kg relative to control; type: functional; set-up: scale not given: the % may be the effect or the level left
Mus musculus [2] = experiment: Antiinflammatory activity against TPA-induced CD-1 mouse ear edema model assessed as reduction in ear edema; type: functional, organism-based
BV-2 [3] = experiment: Anti-inflammatory activity against LPS-induced mouse BV-2 cells assessed as reduction in IL-6 production at 10 uM pre-incubated for 30 mins followed by LPS-stimulation and measured after 6 hrs by RT-PCR analysis; type: functional; set-up: scale not given: the % may be the effect or the level left; settings: time 390 min, 6.5 h
RAW264.7 [4] = experiment: Anti-inflammatory activity against mouse RAW264.7 cells assessed as inhibition of LPS-induced NO production; type: functional, cell-based
BV-2 [5] = experiment: Anti-inflammatory activity against LPS-induced mouse BV-2 cells assessed as reduction in Interleukin-1beta production at 10 uM pre-incubated for 30 mins followed by LPS-stimulation and measured after 6 hrs by RT-PCR analysis; type: functional; set-up: scale not given: the % may be the effect or the level left; settings: time 390 min, 6.5 h
BV-2 [6] = experiment: Anti-inflammatory activity against LPS-induced mouse BV-2 cells assessed as inhibition of COX-2 level at 12.5 microg/ml pre-incubated for 30 mins followed by LPS-stimulation and measured after 6 hrs by RT-PCR analysis; type: functional; set-up: scale not given: the % may be the effect or the level left; settings: dose 12.5 µg/ml; time 390 min; 6.5 h
BV-2 [7] = experiment: Anti-inflammatory activity against LPS-induced mouse BV-2 cells assessed as inhibition of 5-lipoxygenase level at 25 microg/ml pre-incubated for 30 mins followed by LPS-stimulation and measured after 6 hrs by RT-PCR analysis; type: functional; set-up: scale not given: the % may be the effect or the level left; settings: dose 25 µg/ml; time 390 min; 6.5 h
Mus musculus [8] = experiment: Anti-inflammatory activity against xylene-induced ear edema Swiss mouse model assessed as inhibition of ear edema at 0.25 ug/ml, po measured after 6 hrs relative to control; type: functional; set-up: scale not given: the % may be the effect or the level left; settings: dose 0.25 µg/ml
Neutrophil elastase = molecular target: T1, Neutrophil elastase (Homo sapiens, UniProt P08246); experiment: Inhibition of human Neutrophil elastase; type: cell-based
T1 sequence (P08246 whole entry): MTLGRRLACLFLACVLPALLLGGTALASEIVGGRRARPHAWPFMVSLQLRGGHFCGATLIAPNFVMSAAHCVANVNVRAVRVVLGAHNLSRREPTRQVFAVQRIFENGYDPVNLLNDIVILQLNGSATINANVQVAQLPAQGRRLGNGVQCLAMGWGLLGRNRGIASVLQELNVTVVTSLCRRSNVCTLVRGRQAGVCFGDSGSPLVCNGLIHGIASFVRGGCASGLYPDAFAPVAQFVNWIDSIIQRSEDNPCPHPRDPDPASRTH

Rattus norvegicus [9] = experiment: Anti-inflammatory activity against carrageenan-induced paw edema in Wistar rat assessed as reduction in paw edema at 100 mg/kg, po measured after 1 hrs relative to control; type: functional; set-up: scale not given: the % may be the effect or the level left
Neutrophil [10] = experiment: Inhibition of fMLF/CB-induced human Neutrophil activation assessed as reduction in elastase release at 10 uM relative to control; type: functional; set-up: scale not given: the % may be the effect or the level left
[11] = Anti-inflammatory activity in carrageenan-induced human PBMC cells assessed as inhibition of IL-beta leakage at 10 uM measured for 24 hrs relative to control; type: functional; set-up: scale not given: the % may be the effect or the level left
Mus musculus [12] = experiment: Anti-inflammatory activity against xylene-induced ear edema Swiss mouse model assessed as inhibition of ear edema at 0.025 ug/ml, po measured after 6 hrs relative to control; type: functional; set-up: scale not given: the % may be the effect or the level left; settings: dose 0.025 µg/ml
Rattus norvegicus [13] = experiment: Anti-inflammatory activity against carrageenan-induced paw edema in Wistar rat assessed as reduction in paw edema at 100 mg/kg, po measured after 3 hrs relative to control; type: functional; set-up: scale not given: the % may be the effect or the level left
Neutrophil [14] = experiment: Inhibition of fMLF/CB-induced human Neutrophil activation assessed as reduction in elastase release using MeO-Suc-Ala-Ala-Pro-Val-pnitroanilide as substrate pre-incubated for 2 mins followed by fMLF/CB-stimulation and measured for 5 mins; type: functional, cell-based
[15] = molecular target: Transient receptor potential cation channel subfamily V member 1 (Homo sapiens) (UniProt Q8NER1); experiment: Inhibition of TRPV-1 (unknown origin) at 12.5 uM relative to control
Chain of Transient receptor potential cation channel subfamily V member 1 (Homo sapiens) (Q8NER1 whole entry): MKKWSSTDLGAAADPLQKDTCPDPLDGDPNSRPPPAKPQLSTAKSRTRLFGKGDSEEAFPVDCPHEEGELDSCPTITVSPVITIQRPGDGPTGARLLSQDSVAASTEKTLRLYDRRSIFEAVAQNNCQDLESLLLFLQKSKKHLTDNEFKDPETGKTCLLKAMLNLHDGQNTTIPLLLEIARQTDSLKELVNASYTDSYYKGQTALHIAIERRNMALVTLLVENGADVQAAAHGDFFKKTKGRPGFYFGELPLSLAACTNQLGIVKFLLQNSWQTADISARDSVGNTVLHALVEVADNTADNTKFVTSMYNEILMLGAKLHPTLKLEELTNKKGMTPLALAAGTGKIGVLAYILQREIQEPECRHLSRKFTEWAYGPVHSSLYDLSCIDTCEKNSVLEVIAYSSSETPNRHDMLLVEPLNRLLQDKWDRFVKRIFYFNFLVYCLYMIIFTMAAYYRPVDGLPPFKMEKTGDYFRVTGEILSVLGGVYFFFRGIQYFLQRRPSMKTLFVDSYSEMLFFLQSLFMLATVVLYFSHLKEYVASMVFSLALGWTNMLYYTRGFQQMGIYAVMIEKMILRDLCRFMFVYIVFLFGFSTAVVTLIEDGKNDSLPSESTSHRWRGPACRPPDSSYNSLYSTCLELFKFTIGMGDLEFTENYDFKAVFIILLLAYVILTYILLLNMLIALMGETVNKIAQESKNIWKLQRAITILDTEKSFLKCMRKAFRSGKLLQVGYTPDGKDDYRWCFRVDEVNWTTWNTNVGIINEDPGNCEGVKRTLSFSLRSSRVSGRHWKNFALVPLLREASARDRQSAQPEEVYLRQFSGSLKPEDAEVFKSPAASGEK

HaCaT = experiment: Anti-inflammatory activity in LPS-stimulated human HaCaT cells assessed as reduction of IL-6 expression at 12.5 uM; type: functional; set-up: scale not given: the % may be the effect or the level left
RAW264.7 [16] = experiment: Anti-inflammatory activity against mouse RAW264.7 cells assessed as reduction in NO production pre-incubated with compound for 1 hrs followed by LPS-stimulation and measured for 1 hrs by […]; type: functional, cell-based
[17] = Inhibition of nitric oxide synthase (unknown origin); set-up: species or system Homo sapiens
Mus musculus [18] = experiment: Analgesic activity against acetic acid-induced BALB/c writhing mouse model assessed as inhibition of writhing at 10 mg/kg, ip pre-incubated for 30 mins followed by acetic acid addition and measured after 15 mins relative to control; type: functional; set-up: scale not given: the % may be the effect or the level left; settings: time 45 min, 0.75 h
Mus musculus [19] = experiment: Antiinflammatory activity in carrageenan-induced Kunming mouse model of paw edema assessed as paw volume at 1 mg/kg, ip pre-incubated for 1 hr followed by carrageenan administration measured for 60 mins relative to control; type: functional; settings: time 2 hrs
Neutrophil [20] = experiment: Inhibition of fMLF-induced chemotaxis in human neutrophils pretreated for 45 mins followed by fMLF-stimulation measured for 1 hr by luminescence based analysis; type: functional, cell-based
[21] = Anti-inflammatory activity in LPS-stimulated human PBMC cells assessed as COX-2 inhibition at 100 ug/ml relative to control; type: functional; set-up: scale not given: the % may be the effect or the level left; settings: dose 100 µg/ml
[22] = Antioxidant activity assessed as DPPH radical scavenging activity at 100 microg/ml relative to control; type: functional; settings: dose 100.0 µg/ml
[23] = Anti-inflammatory activity in LPS-stimulated human PBMC cells assessed as 5-lipoxygenase inhibition at 100 ug/ml relative to control; type: functional; set-up: scale not given: the % may be the effect or the level left; settings: dose 100 µg/ml
RAW264.7 [24] = experiment: Inhibition of NF-kappaB activation in mouse RAW264.7 cells expressing luciferase gene at 100 microg/ml by luciferase reporter gene assay; type: cell-based; settings: dose 100.0 µg/ml
[25] = Anti-inflammatory activity in LPS-stimulated human PBMC cells assessed as inhibition of TNFalpha at 100 ug/ml relative to control; type: functional; set-up: scale not given: the % may be the effect or the level left; settings: dose 100 µg/ml
BV-2 [26] = experiment: Antineuroinflammatory activity in LPS-induced mouse BV-2 cells assessed as inhibition of iNOS production at 50 uM pre-incubated for 2 hr followed by LPS-stimulation measured for 24 hrs by Western blot analysis; type: functional; set-up: scale not given: the % may be the effect or the level left; settings: time 26 hrs
BV-2 [27] = experiment: Antiinflammatory activity in mouse BV-2 cells assessed as reduction in LPS-induced NO production by Griess reagent based analysis; type: functional, cell-based

`O=C1C[C@@H](c2ccc(O)c(O)c2)Oc2cc(O)cc(O)c21` [ERIODICTYOL] showed an Activity (Mus musculus [1]) of 56.3% and a pIC50 (Mus musculus [2]) of 6.14.

`O=c1cc(-c2ccc(O)cc2)oc2cc(O)cc(O)c12` [APIGENIN] showed an Activity (BV-2 [3]) of 68%, a pIC50 (RAW264.7 [4]) of 4.92 and an Activity (BV-2 [5]) of 68%. It also gave an Activity (BV-2 [6]) of 89.2% and an Activity (BV-2 [7]) of 88.3%.

For `COc1ccc(-c2cc(=O)c3c(O)c(OC)c(OC)c(OC)c3o2)cc1OC` [5-DEMETHYLNOBILETIN], the Activity (Mus musculus [8]) was 41%, the pIC50 (Neutrophil elastase) was 6.46 and the Activity (Rattus norvegicus [9]) was 65%. For the same molecule, the Activity (Neutrophil [10]) was 89%, the Activity [11] was 24.8% and the Activity (Mus musculus [12]) was 79%. It also gave an Activity (Rattus norvegicus [13]) of 47%.

`COc1cc(O)c2c(=O)cc(-c3ccc(O)c(O)c3)oc2c1` showed a pIC50 (Neutrophil [14]) of at least 4.82, an inhibition [15] of 33% and an Activity (HaCaT) of 52%.

`O=C1C[C@@H](c2ccc(O)cc2)Oc2cc(O)ccc21` [LIQUIRTIGENIN] gave a pIC50 (RAW264.7 [16]) of 4.79 and a pIC50 [17] of 4.72.

In the case of `O=c1cc(-c2ccccc2)oc2cc(O)cc(O)c12` [CHRYSIN], the Activity (Mus musculus [18]) was 56%, the Activity (Mus musculus [19]) was 25% and the pIC50 (Neutrophil [20]) was 5.65.

In the case of `COc1cc(-c2cc(=O)c3c(O)cc(O)cc3o2)cc(O)c1OC`, the Activity [21] was 83.3%, the Activity [22] was 40% and the Activity [23] was 98.4%. For the same molecule, the inhibition (RAW264.7 [24]) was 23.1% and the Activity [25] was 86.1%.

In the case of `COc1ccc(-c2cc(=O)c3c(OC)c(OC)c(OC)c(OC)c3o2)cc1OC` [NOBILETIN], the Activity (BV-2 [26]) was 71.2%.

For `COc1cc(-c2cc(=O)c3c(O)c(OC)c(O)cc3o2)ccc1O` [JACEOSIDINE], the pIC50 (BV-2 [27]) was 4.57.

— ChEMBL document CHEMBL5543059, “Discovery of anti-inflammatory natural flavonoids: Diverse scaffolds and promising leads for drug discovery” (Eur J Med Chem, 2023)
